# Source: US12492188B2, “1H-benzo[D]imidazole derivatives as TLR9 inhibitors for the treatment of fibrosis” (BRISTOL-MYERS SQUIBB COMPANY, priority 2020, dated 2025)
# Where two headings read alike, the source gives them in different places.
# Assays:
# Format in all cases: cell-based
# [1] = target: T1, human TLR9 (Homo sapiens, UniProt Q9NR96); assay: TLR9 inhibition reporter assay (HEK-Blue cells, secreted embryonic alkaline phosphatase reporter); conditions: HEK-Blue cells overexpressing human TLR9, stimulated with ODN2006 5 nM
# T1 construct: host or cells: HEK-Blue cells (HEK293-derived reporter line)
# T1 sequence (Q9NR96 26-1032): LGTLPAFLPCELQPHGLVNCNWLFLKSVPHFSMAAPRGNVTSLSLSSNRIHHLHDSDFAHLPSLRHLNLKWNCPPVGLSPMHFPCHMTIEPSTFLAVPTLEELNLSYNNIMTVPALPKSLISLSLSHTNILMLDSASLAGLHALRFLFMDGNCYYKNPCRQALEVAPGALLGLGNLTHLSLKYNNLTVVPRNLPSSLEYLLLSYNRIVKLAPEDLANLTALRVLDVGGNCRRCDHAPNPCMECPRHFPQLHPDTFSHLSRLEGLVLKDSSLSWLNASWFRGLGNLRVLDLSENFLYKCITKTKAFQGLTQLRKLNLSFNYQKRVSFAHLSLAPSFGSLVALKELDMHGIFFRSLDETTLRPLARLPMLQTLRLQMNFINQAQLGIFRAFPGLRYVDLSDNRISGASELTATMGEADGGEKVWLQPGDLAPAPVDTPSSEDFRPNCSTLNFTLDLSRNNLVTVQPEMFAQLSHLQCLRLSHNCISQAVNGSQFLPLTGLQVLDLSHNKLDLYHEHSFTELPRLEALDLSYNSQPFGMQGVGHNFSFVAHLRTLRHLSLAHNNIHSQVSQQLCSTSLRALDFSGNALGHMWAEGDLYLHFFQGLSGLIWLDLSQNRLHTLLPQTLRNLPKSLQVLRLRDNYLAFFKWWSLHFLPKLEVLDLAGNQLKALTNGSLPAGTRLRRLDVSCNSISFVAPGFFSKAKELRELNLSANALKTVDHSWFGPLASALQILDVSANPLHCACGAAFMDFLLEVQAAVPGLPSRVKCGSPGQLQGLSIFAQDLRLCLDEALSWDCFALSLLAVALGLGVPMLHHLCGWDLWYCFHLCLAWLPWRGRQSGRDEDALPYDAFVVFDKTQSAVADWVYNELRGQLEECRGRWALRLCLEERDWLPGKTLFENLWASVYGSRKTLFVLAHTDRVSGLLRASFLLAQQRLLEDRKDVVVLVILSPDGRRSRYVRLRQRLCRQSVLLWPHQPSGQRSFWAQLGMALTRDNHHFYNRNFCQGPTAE
# In short: (§1)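 Agonist-driven SEAP output was measured in HEK-Blue reporter cells carrying human TLR7 (gardiquimod 7.5 μM), TLR8 (R848 15.9 μM) or TLR9 (ODN2006 5 nM). Compounds at 0.05 nM–50 μM final were added 30 min before stimulation at room temperature. After 22 h at 37 °C, percent inhibition was taken against agonist/DMSO wells and a reference inhibitor.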
# [2] = target: T2, human TLR7 (Homo sapiens, UniProt Q9NYK1); assay: TLR7 inhibition reporter assay (HEK-Blue cells, secreted embryonic alkaline phosphatase reporter); conditions: HEK-Blue cells overexpressing human TLR7, stimulated with gardiquimod 7.5 μM; read-out: TLR 7 IC50
# T2 construct: host or cells: HEK-Blue cells (HEK293-derived reporter line)
# T2 sequence (Q9NYK1 27-1049): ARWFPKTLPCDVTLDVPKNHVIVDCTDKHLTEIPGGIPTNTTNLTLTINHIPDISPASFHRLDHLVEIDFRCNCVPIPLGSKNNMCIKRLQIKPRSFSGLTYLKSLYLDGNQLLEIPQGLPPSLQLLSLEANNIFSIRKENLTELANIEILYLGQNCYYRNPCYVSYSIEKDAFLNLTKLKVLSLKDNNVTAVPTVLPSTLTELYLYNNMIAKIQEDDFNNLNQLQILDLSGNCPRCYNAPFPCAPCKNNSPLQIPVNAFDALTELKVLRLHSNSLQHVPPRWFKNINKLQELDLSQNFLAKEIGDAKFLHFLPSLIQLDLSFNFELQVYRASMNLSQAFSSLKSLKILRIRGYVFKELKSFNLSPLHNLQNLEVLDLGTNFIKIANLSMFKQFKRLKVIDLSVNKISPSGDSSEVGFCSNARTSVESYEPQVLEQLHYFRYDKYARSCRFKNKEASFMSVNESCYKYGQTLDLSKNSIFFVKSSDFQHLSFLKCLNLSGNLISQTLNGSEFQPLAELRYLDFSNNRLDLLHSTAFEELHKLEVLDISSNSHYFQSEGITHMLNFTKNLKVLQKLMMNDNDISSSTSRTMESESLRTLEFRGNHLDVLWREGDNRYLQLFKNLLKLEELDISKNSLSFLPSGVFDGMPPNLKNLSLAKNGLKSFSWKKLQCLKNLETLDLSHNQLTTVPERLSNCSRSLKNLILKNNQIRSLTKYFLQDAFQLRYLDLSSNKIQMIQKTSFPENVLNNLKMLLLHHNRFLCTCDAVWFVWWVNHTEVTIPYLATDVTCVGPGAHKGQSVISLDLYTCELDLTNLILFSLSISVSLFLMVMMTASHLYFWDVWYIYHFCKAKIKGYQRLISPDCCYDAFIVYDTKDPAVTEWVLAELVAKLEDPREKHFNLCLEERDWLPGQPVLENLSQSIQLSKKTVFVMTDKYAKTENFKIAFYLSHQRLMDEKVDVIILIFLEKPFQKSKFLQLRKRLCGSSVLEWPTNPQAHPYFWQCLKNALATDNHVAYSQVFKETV
# In short: as §1
# [3] = target: T3, human TLR8 (Homo sapiens, UniProt Q9NR97); assay: TLR8 inhibition reporter assay (HEK-Blue cells, secreted embryonic alkaline phosphatase reporter); conditions: HEK-Blue cells overexpressing human TLR8, stimulated with R848 15.9 μM; read-out: TLR 8 IC50
# T3 construct: host or cells: HEK-Blue cells (HEK293-derived reporter line)
# T3 sequence (Q9NR97 27-1041): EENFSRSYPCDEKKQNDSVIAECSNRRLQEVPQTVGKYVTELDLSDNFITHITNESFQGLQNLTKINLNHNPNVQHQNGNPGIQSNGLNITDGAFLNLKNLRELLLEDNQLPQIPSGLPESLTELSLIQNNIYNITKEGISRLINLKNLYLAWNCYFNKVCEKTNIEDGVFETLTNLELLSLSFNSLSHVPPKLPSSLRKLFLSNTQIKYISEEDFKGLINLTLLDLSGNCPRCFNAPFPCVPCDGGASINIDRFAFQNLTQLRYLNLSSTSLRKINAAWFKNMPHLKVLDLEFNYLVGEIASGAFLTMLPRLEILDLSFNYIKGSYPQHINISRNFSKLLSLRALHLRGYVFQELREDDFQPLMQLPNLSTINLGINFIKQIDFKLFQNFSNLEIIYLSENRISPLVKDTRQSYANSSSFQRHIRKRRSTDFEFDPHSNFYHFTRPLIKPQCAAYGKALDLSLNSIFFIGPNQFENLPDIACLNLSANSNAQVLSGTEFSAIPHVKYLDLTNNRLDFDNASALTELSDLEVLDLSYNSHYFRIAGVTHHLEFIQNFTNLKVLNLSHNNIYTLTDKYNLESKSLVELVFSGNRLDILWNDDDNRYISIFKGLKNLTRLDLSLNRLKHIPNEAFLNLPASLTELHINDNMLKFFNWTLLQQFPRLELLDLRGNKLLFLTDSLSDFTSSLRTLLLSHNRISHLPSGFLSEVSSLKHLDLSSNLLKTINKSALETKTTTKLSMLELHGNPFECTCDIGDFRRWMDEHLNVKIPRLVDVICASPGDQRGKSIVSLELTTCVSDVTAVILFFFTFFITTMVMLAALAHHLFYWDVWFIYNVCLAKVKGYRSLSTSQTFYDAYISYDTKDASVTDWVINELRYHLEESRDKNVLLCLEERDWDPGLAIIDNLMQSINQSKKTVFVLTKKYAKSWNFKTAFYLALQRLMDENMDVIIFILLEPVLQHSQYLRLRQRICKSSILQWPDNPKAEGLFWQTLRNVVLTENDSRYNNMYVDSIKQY
# Method: TLR7/8/9 Inhibition Reporter Assays
# HEK-Blue™-cells (Invivogen) overexpressing human TLR7, TLR8 or TLR9 receptors were used for screening inhibitors of these receptors using an inducible SLAP (secreted embryonic alkaline phosphatase) reporter gene under the control of the […] minimal promoter fused to five NF-κB and AP-1-binding sites. Briefly, cells are seeded into Greiner 384 well plates (15000 cells per well for TLR7, 20,000 for TLR8 and 25,000 for TLR9) and then treated with test compounds in DMSO to yield a final dose response concentration range of 0.05 nM-50 μM. After a 30 minute compound pre-treatment at room temperature, the cells are then stimulated with a TLR7 ligand (gardiquimod at a final concentration of 7.5 μM), TLR8 ligand (R848 at a final concentration of 15.9 μM) or TLR9 ligand (ODN2006 at a final concentration of 5 nM) to activate NF-κB and AP-1 which induce the production of SLAP. After a 22 hour incubation at 37° C., […], SLAP levels are determined with the addition of HEK-Blue™ Detection reagent (Invivogen), a cell culture medium that allows for detection of SLAP, according to manufacturer's specifications. The percent inhibition is determined as the […] in the HEK-Blue signal present in wells treated with agonist plus DMSO alone compared to wells treated with a known inhibitor.
# [4] = 22 hour incubation, reporter readout
"IC50 [1, 4] [µM]",IC50 [2] [µM],IC50 [3] [µM],IC50 ([1]; read-out: TLR 9 IC50) [µM],SMILES
0.062,39.9,> 50,–,"CC(C)N1C2CCC1CC(N1CCC(c3cc4nc(-c5ccc(S(C)(=O)=O)cc5)n(C)c4cc3F)CC1)C2 (single isomer, unassigned) [Example 100, 6-fluoro-5-(1-(8-isopropyl-8-azabicyclo[3.2.1]octan-3-yl)piperidin-4-yl)-1-methyl-2-(4-(methylsulfonyl)phenyl)-1H-benzo[d]imidazole]"
0.075,19.5,> 50,–,"CC(C)N1C2CCC1CC(N1CCC(c3cc4nc(-c5ccc(S(C)(=O)=O)cc5)n(C)c4cc3F)CC1)C2 (single isomer, unassigned) [Example 101, 6-fluoro-5-(1-(8-isopropyl-8-azabicyclo[3.2.1]octan-3-yl)piperidin-4-yl)-1-methyl-2-(4-(methylsulfonyl)phenyl)-1H-benzo[d]imidazole]"
0.054,25.9,> 50,–,"CC(C)N1C2CCC1CC(N1CCC(c3ccc4nc(-c5ccc(S(C)(=O)=O)cc5)n(C)c4c3F)CC1)C2 (single isomer, unassigned) [Example 103, 7-fluoro-6-(1-(8-isopropyl-8-azabicyclo[3.2.1]octan-3-yl)piperidin-4-yl)-1-methyl-2-(4-(methylsulfonyl)phenyl)-1H-benzo[d]imidazole]"
0.14,39.2,> 50,–,"CC(C)N1C2CCC1CC(N1CCC(c3ccc4nc(-c5ccc(S(C)(=O)=O)cc5)n(C)c4c3F)CC1)C2 (single isomer, unassigned) [Example 104, 7-fluoro-6-(1-(8-isopropyl-8-azabicyclo[3.2.1]octan-3-yl)piperidin-4-yl)-1-methyl-2-(4-(methylsulfonyl)phenyl)-1H-benzo[d]imidazole]"

# Further lines, the compound ahead of its results:
SMILES,"IC50 [1, 4] [µM]",IC50 [2] [µM],IC50 [3] [µM],IC50 ([1]; read-out: TLR 9 IC50) [µM]
"CC(C)N1C2CCC1CC(N1CCC(c3ccc4nc(-c5ccc(S(C)(=O)=O)cc5)[nH]c4c3F)CC1)C2 (single isomer, unassigned) [Example 95, 7-fluoro-6-(1-(8-isopropyl-8-azabicyclo[3.2.1]octan-3-yl)piperidin-4-yl)-2-(4-(methylsulfonyl)phenyl)-1H-benzo[d]imidazole]",0.029,> 50,> 50,–
"CC(C)N1C2CCC1CC(N1CCC(c3cc4c(cc3F)nc(-c3ccc(S(C)(=O)=O)cc3)n4C)CC1)C2 (single isomer, unassigned) [Example 97, 5-fluoro-6-(1-(8-isopropyl-8-azabicyclo[3.2.1]octan-3-yl)piperidin-4-yl)-1-methyl-2-(4-(methylsulfonyl)phenyl)-1H-benzo[d]imidazole]",0.079,47,> 50,–
"CC(C)N1C2CCC1CC(N1CCC(c3cc4c(cc3F)nc(-c3ccc(S(C)(=O)=O)cc3)n4C)CC1)C2 (single isomer, unassigned) [Example 98, 5-fluoro-6-(1-(8-isopropyl-8-azabicyclo[3.2.1]octan-3-yl)piperidin-4-yl)-1-methyl-2-(4-(methylsulfonyl)phenyl)-1H-benzo[d]imidazole]",0.01,23.8,> 50,–
"CC(C)N1C2CCC1CC(N1CCC(c3cc(F)c4nc(-c5ccc(S(C)(=O)=O)cc5)n(C)c4c3)CC1)C2 (single isomer, unassigned) [Example 106, 4-fluoro-6-(1-(8-isopropyl-8-azabicyclo[3.2.1]octan-3-yl)piperidin-4-yl)-1-methyl-2-(4-(methylsulfonyl)phenyl)-1H-benzo[d]imidazole]",0.39,35.1,> 50,0.387
